The text below walks through data of ChEMBL document CHEMBL1154412, “In vitro activity of telavancin against gram-positive clinical isolates recently obtained in Europe” (Antimicrob Agents Chemother, 2007).

≈ marks a conversion by molar mass, not a printed value.

What all share (assay type): functional
For assay [1], the system named is Streptococcus pneumoniae. The experiment in a line: Antibacterial activity against penicillin-susceptible Streptococcus pneumoniae after 20 to 24 hrs by broth microdilution method.
Assay [2] has as its system Streptococcus pneumoniae. The experiment in a line: Antibacterial activity against penicillin-intermediate Streptococcus pneumoniae after 20 to 24 hrs by broth microdilution method. In general terms: In broth dilution the organism is exposed to a series of concentrations in liquid medium.
For assay [3], the system named is Streptococcus pneumoniae. The experiment in a line: Antibacterial activity against penicillin-resistant Streptococcus pneumoniae after 20 to 24 hrs by broth microdilution method.
The subject of assay [4] is Streptococcus sp. 'group A'. The experiment in a line: Antimicrobial activity against Streptococcus group A after 20 to 24 hrs by broth microdilution method.
The test system of assay [5] is Streptococcus sp. 'group B'. As to the kind of experiment: Antimicrobial activity against Streptococcus group B after 20 to 24 hrs by broth microdilution method.
Another assay relates to Streptococcus viridans. As to the kind of experiment: Antimicrobial activity against Streptococcus viridans after 20 to 24 hrs by broth microdilution method.
Assay [6] deals with Staphylococcus aureus. As to the kind of experiment: Antimicrobial activity against methicillin-susceptible Staphylococcus aureus after 20 to 24 hrs by broth microdilution method.
For assay [7], the system named is Staphylococcus aureus. The experiment in a line: Antimicrobial activity against methicillin-resistant Staphylococcus aureus after 20 to 24 hrs by broth microdilution method.
Assay [8] has as its system Staphylococcus. As to the kind of experiment: Antimicrobial activity against methicillin-susceptible coagulase-negative Staphylococcus after 20 to 24 hrs by broth microdilution method.
For assay [9], the system named is Staphylococcus. The experiment in a line: Antimicrobial activity against methicillin-resistant coagulase-negative Staphylococcus after 20 to 24 hrs by broth microdilution method.
The subject of assay [10] is Enterococcus faecalis. The experiment in a line: Antimicrobial activity against vancomycin-susceptible Enterococcus faecalis after 20 to 24 hrs by broth microdilution method.
Assay [11] relates to Enterococcus faecalis. The experiment in a line: Antimicrobial activity against vancomycin-resistant Enterococcus faecalis after 20 to 24 hrs by broth microdilution method.
Another assay deals with Enterococcus faecium. The experiment in a line: Antibacterial activity against vancomycin-resistant Enterococcus faecium after 20 to 24 hrs by broth microdilution method.

In general, MIC50 refers to an inhibitory concentration at the 50% level, which refers to growth in some studies and to a panel of isolates in others. Low readings indicate higher susceptibility, high ones lower susceptibility. What is called MIC90 is an inhibitory concentration at the 90% level, which refers to growth in some studies and to a panel of isolates in others. Low values mean greater potency, high ones weaker potency. Regarding `CO/N=C(\C(=O)N[C@@H]1C(=O)N2C(C(=O)O)=C(CSc3nc(=O)c(O)nn3C)CS[C@H]12)c1csc(N)n1` [CEFTRIAXONE], the MIC50 in the assay on Streptococcus pneumoniae [1] came to 0.03 µg/mL (≈ 0.0541 µM); in the assay with Streptococcus pneumoniae [2] it was 0.12 µg/mL (≈ 0.216 µM); with Streptococcus pneumoniae [3], 1 µg/mL (≈ 1.8 µM); in assay [4] it was 0.03 µg/mL (≈ 0.0541 µM); in assay [5], 0.06 µg/mL (≈ 0.108 µM); in the assay with Streptococcus viridans it was 0.12 µg/mL (≈ 0.216 µM). For the same molecule, the MIC90 with Streptococcus pneumoniae [1] is 0.03 µg/mL (≈ 0.0541 µM); in the assay with Streptococcus pneumoniae [2] it was 1 µg/mL (≈ 1.8 µM); against Streptococcus pneumoniae [3], 2 µg/mL (≈ 3.61 µM); in assay [4], 0.03 µg/mL (≈ 0.0541 µM); in assay [5], 0.06 µg/mL (≈ 0.108 µM); in the assay on Streptococcus viridans it was 2 µg/mL (≈ 3.61 µM).
Broadly, the MIC is the lowest concentration that inhibits growth of the organism. Low values mean inhibition by little substance, high ones a need for much substance. For `CO/N=C(\C(=O)N[C@@H]1C(=O)N2C(C(=O)O)=C(COC(N)=O)CS[C@H]12)c1ccco1` [CEFUROXIME], the minimal inhibitory concentration (MIC) in the assay on Streptococcus pneumoniae [1] was not above 0.12 µg/mL; in the assay on Streptococcus pneumoniae [3] it was not below 4 µg/mL; in assay [4], not above 0.12 µg/mL; in assay [5] it was not above 0.12 µg/mL; against Streptococcus viridans it was not above 0.12 µg/mL. The MIC50 was not above 0.12 µg/mL against Streptococcus pneumoniae [1]; 0.5 µg/mL (≈ 1.18 µM) in the assay with Streptococcus pneumoniae [2]; more than 4 µg/mL against Streptococcus pneumoniae [3]; not above 0.12 µg/mL in assay [4]; not above 0.12 µg/mL in [5]; not above 0.12 µg/mL in the assay with Streptococcus viridans. Besides, the MIC90 against Streptococcus pneumoniae [1] was not above 0.12 µg/mL; with Streptococcus pneumoniae [2] it was 4 µg/mL (≈ 9.43 µM); in the assay with Streptococcus pneumoniae [3] it was more than 4 µg/mL; in assay [4], not above 0.12 µg/mL; in assay [5], not above 0.12 µg/mL; in the assay on Streptococcus viridans it was 2 µg/mL (≈ 4.71 µM).
On to `C[C@H]1COc2c(N3CCN(C)CC3)c(F)cc3c(=O)c(C(=O)O)cn1c23.C[C@H]1COc2c(N3CCN(C)CC3)c(F)cc3c(=O)c(C(=O)O)cn1c23.O` [LEVOFLOXACIN], for which the MIC50 (in the assay on Streptococcus pneumoniae [1]; against Streptococcus pneumoniae [2]; against Streptococcus pneumoniae [3]; in assay [4]; in assay [5]; against Streptococcus viridans) was 0.5 µg/mL throughout. In addition, the MIC90 is 1 µg/mL in the assay with Streptococcus pneumoniae [1]; 1 µg/mL with Streptococcus pneumoniae [2]; 4 µg/mL in the assay on Streptococcus pneumoniae [3]; 0.5 µg/mL in assay [4]; 1 µg/mL in assay [5]; 1 µg/mL with Streptococcus viridans.
Turning to `CC[C@H]1OC(=O)[C@H](C)[C@@H](O[C@H]2C[C@@](C)(OC)[C@@H](O)[C@H](C)O2)[C@H](C)[C@@H](O[C@@H]2O[C@H](C)C[C@H](N(C)C)[C@H]2O)[C@](C)(O)C[C@@H](C)C(=O)[C@H](C)[C@@H](O)[C@]1(C)O` [ERYTHROMYCIN], the MIC50 was 0.5 µg/mL (≈ 0.681 µM) against Staphylococcus aureus [6]; more than 16 µg/mL in the assay on Staphylococcus aureus [7]; 0.25 µg/mL (≈ 0.341 µM) against Staphylococcus [8]; more than 16 µg/mL with Staphylococcus [9]; 0.03 µg/mL (≈ 0.0409 µM) against Streptococcus pneumoniae [1]; 0.03 µg/mL (≈ 0.0409 µM) in the assay with Streptococcus pneumoniae [2]. Besides, the MIC50 against Streptococcus pneumoniae [3] is more than 1 µg/mL; in assay [4], 0.03 µg/mL (≈ 0.0409 µM); in assay [5], 0.03 µg/mL (≈ 0.0409 µM); in the assay with Streptococcus viridans it was 0.03 µg/mL (≈ 0.0409 µM). Besides, the MIC90 in the assay with Staphylococcus aureus [6] was more than 16 µg/mL; in the assay with Staphylococcus [8] it was more than 16 µg/mL; against Streptococcus pneumoniae [1], 0.06 µg/mL (≈ 0.0818 µM); in the assay on Streptococcus pneumoniae [2] it was more than 1 µg/mL; in assay [4], 0.06 µg/mL (≈ 0.0818 µM); in assay [5] it was 0.5 µg/mL (≈ 0.681 µM). The molecule further gave an MIC90 against Streptococcus viridans of more than 1 µg/mL.
For the molecule `Cc1onc(-c2ccccc2)c1C(=O)N[C@@H]1C(=O)N2[C@@H]1SC(C)(C)[C@@H]2C(=O)O` [OXACILLIN], the MIC50 in the assay with Staphylococcus aureus [6] was 0.25 µg/mL (≈ 0.623 µM); with Staphylococcus aureus [7] it was more than 4 µg/mL; with Staphylococcus [8], 0.12 µg/mL (≈ 0.299 µM); with Staphylococcus [9], more than 4 µg/mL. The MIC90 in the assay with Staphylococcus aureus [6] was 0.5 µg/mL (≈ 1.25 µM); against Staphylococcus aureus [7], more than 4 µg/mL; against Staphylococcus [8], 0.12 µg/mL (≈ 0.299 µM); against Staphylococcus [9], more than 4 µg/mL.
Consider `CC[C@H]1OC(=O)[C@H](C)C(=O)[C@H](C)[C@@H](O[C@@H]2O[C@H](C)C[C@H](N(C)C)[C@H]2O)[C@](C)(OC)C[C@@H](C)C(=O)[C@H](C)[C@H]2N(CCCCn3cnc(-c4cccnc4)c3)C(=O)O[C@]12C` [TELITHROMYCIN], for which the MIC50 was determined as 0.12 µg/mL (≈ 0.148 µM) in the assay with Staphylococcus aureus [6]; 0.12 µg/mL (≈ 0.148 µM) against Staphylococcus aureus [7]; 0.06 µg/mL (≈ 0.0739 µM) against Staphylococcus [8]; 0.12 µg/mL (≈ 0.148 µM) with Staphylococcus [9]; 0.008 µg/mL (≈ 0.00985 µM) in the assay with Streptococcus pneumoniae [1]; 0.008 µg/mL (≈ 0.00985 µM) against Streptococcus pneumoniae [2]. The MIC50 came to 0.015 µg/mL (≈ 0.0185 µM) against Streptococcus pneumoniae [3], 0.015 µg/mL (≈ 0.0185 µM) in [4], 0.015 µg/mL (≈ 0.0185 µM) in assay [5] and 0.008 µg/mL (≈ 0.00985 µM) with Streptococcus viridans. Further, the MIC90 is 0.12 µg/mL (≈ 0.148 µM) against Staphylococcus aureus [6]; more than 8 µg/mL in the assay on Staphylococcus aureus [7]; 0.5 µg/mL (≈ 0.616 µM) against Staphylococcus [8]; more than 8 µg/mL with Staphylococcus [9]; 0.008 µg/mL (≈ 0.00985 µM) in the assay on Streptococcus pneumoniae [1]; 0.25 µg/mL (≈ 0.308 µM) against Streptococcus pneumoniae [2]. The MIC90 stood at 0.03 µg/mL (≈ 0.0369 µM) against Streptococcus pneumoniae [3], 0.015 µg/mL (≈ 0.0185 µM) in [4], 0.015 µg/mL (≈ 0.0185 µM) in assay [5] and 0.12 µg/mL (≈ 0.148 µM) against Streptococcus viridans.
For the molecule `CNC1C(O)C(OC2C(N)CC(N)C(OC3OC(CN)CCC3N)C2O)OCC1(C)O` (stereo not drawn) [GENTAMICIN C1A], the MIC50 is 0.25 µg/mL (≈ 0.556 µM) against Staphylococcus aureus [6], 0.5 µg/mL (≈ 1.11 µM) against Staphylococcus aureus [7], not above 0.06 µg/mL against Staphylococcus [8] and 8 µg/mL (≈ 17.8 µM) against Staphylococcus [9]. For the same molecule, the MIC90 in the assay with Staphylococcus aureus [6] is 1 µg/mL (≈ 2.22 µM); in the assay on Staphylococcus aureus [7], more than 16 µg/mL; in the assay with Staphylococcus [8] it was not above 0.06 µg/mL; in the assay with Staphylococcus [9] it was more than 16 µg/mL. The molecule further showed an MIC in the assay with Staphylococcus [8] not above 0.06 µg/mL.
Consider `CCC[C@@H]1C[C@@H](C(=O)N[C@@H]([C@H]2O[C@H](SC)[C@H](O)[C@@H](O)[C@H]2O)[C@H](C)Cl)N(C)C1` [CLINDAMYCIN], for which the minimum inhibitory concentration (MIC) with Staphylococcus aureus [6] was not above 0.5 µg/mL; against Staphylococcus [8], not above 0.5 µg/mL; in [4], not above 0.03 µg/mL; against Streptococcus viridans, not above 0.03 µg/mL. For the same molecule, the MIC50 was not above 0.5 µg/mL in the assay with Staphylococcus aureus [6]; not above 0.5 µg/mL in the assay on Staphylococcus [8]; 0.06 µg/mL (≈ 0.141 µM) in the assay on Streptococcus pneumoniae [1]; 0.06 µg/mL (≈ 0.141 µM) against Streptococcus pneumoniae [2]; more than 0.25 µg/mL against Streptococcus pneumoniae [3]; not above 0.03 µg/mL in [4]. Further, the values for the MIC50 (in assay [5]; against Streptococcus viridans) were 0.06 µg/mL (≈ 0.141 µM) and not above 0.03 µg/mL, respectively. Further, the MIC90 against Staphylococcus aureus [6] is not above 0.5 µg/mL; against Staphylococcus aureus [7], more than 4 µg/mL; with Staphylococcus [8] it was not above 0.5 µg/mL; with Staphylococcus [9], more than 4 µg/mL; against Streptococcus pneumoniae [1], 0.06 µg/mL (≈ 0.141 µM); in the assay on Streptococcus pneumoniae [2], more than 0.25 µg/mL. Further, the MIC90 in assay [4] is 0.06 µg/mL (≈ 0.141 µM); in assay [5], 0.06 µg/mL (≈ 0.141 µM); with Streptococcus viridans, more than 0.25 µg/mL.
With `CN(C)[C@@H]1C(O)=C(C(N)=O)C(=O)[C@@]2(O)C(O)=C3C(=O)c4c(O)cccc4[C@@](C)(O)[C@H]3C[C@@H]12` [TETRACYCLINE], the MIC50 was 0.12 µg/mL (≈ 0.27 µM) against Streptococcus pneumoniae [1]; 0.25 µg/mL (≈ 0.563 µM) in the assay on Streptococcus pneumoniae [2]; 0.25 µg/mL (≈ 0.563 µM) with Streptococcus pneumoniae [3]; 0.12 µg/mL (≈ 0.27 µM) in assay [4]; more than 8 µg/mL in assay [5]; 0.5 µg/mL (≈ 1.13 µM) with Streptococcus viridans. Further, the MIC90 with Streptococcus pneumoniae [1] was 0.25 µg/mL (≈ 0.563 µM); against Streptococcus pneumoniae [2], more than 8 µg/mL; in assay [4], more than 8 µg/mL; in assay [5] it was more than 8 µg/mL; against Streptococcus viridans it was more than 8 µg/mL. Besides, in assay [4], the MIC turned out to be 0.12 µg/mL (≈ 0.27 µM).
For `O=C(O)c1cn(C2CC2)c2cc(N3CCNCC3)c(F)cc2c1=O` [CIPROFLOXACIN], the MIC50 in the assay with Staphylococcus aureus [6] is 0.25 µg/mL (≈ 0.754 µM); with Staphylococcus aureus [7], more than 8 µg/mL; in the assay on Staphylococcus [9], 2 µg/mL (≈ 6.04 µM); against Enterococcus faecalis [10] it was 1 µg/mL (≈ 3.02 µM); in the assay with Enterococcus faecalis [11], 1 µg/mL (≈ 3.02 µM); against Enterococcus faecium, 32 µg/mL (≈ 96.6 µM). Besides, the MIC90 in the assay with Staphylococcus aureus [6] was 1 µg/mL (≈ 3.02 µM); against Staphylococcus aureus [7] it was more than 8 µg/mL; in the assay with Staphylococcus [9] it was more than 8 µg/mL; against Enterococcus faecalis [10], more than 32 µg/mL.
